In brackets after ≈: the same amount, converted by molar mass. Like-named read-outs stand apart in the source and are kept apart here.
What was measured:
[1] = BPO solubility in water and in binary mixtures with surfactants; conditions: water
Text: The concentration of all surfactants was fixed at 6% w/w active.

[2] = cited from earlier work
[3] = in water and propylene glycol, storage; cited from earlier work
[4] = Chemical stability of BPO in wash formulations, shelf life prediction; assay type: physicochemical; conditions: wash formulations with increasing sorbitol concentrations
Description: BPO stability in the formulations of the present invention were assessed over time at 25° C./60% RH and 30° C./65% RH using environmentally controlled chambers. Specifically formulations containing 2.5% BPO or 10% BPO in glass vials were placed on stability, and monitored for BPO degradation.
Chemical stability of the BPO in surfactant based wash products is a challenge due to increased solubility of the BPO in these systems.

| SMILES | solubility [1] | half-life of BPO in solution in water ([2]; pH 4) | half-life of BPO in solution in water ([2]; pH 7) | stability of benzoyl peroxide in suspension (dispersed form) [3] | effect on BPO stability (benzoic acid generated) [4] |
| --- | --- | --- | --- | --- | --- |
| O=C(OOC(=O)c1ccccc1)c1ccccc1 [BPO, Benzoyl peroxide] | 3 µg/mL (≈ 12.4 µM) | 11.87 h | 5.20 h | not degraded after 90 days |  |
| OC[C@@H](O)[C@@H](O)[C@H](O)[C@@H](O)CO [sorbitol, D-Sorbitol] |  |  |  |  | improve BPO stability |

Source: patent publication US20170128407A1, “NOVEL FORMULATIONS” (priority 2015, published 2017)
